Measured values published in PubChem BioAssay (NCI).
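Tested at 5 concentrations; 48 h exposure; 96-well plates; endpoints linearly interpolated, else capped at highest concentration. TGI: total growth inhibition.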

Experiments:
Test in all cases: growth of human tumour cells (NCI), 48 h
ACHN renal = tested on: ACHN renal
BT-549 breast = tested on: BT-549 breast
CCRF-CEM leukemia = tested on: CCRF-CEM leukemia
IGROV1 ovarian = tested on: IGROV1 ovarian
MDA-MB-231 breast = tested on: MDA-MB-231 breast
SK-MEL-28 melanoma = tested on: SK-MEL-28 melanoma
SK-MEL-5 melanoma = tested on: SK-MEL-5 melanoma
T-47D breast = tested on: T-47D breast
K-562 leukemia = tested on: K-562 leukemia
SK-MEL-2 melanoma = tested on: SK-MEL-2 melanoma

SMILES	TGI (ACHN renal)	TGI (BT-549 breast)	TGI (CCRF-CEM leukemia)	TGI (IGROV1 ovarian)	TGI (MDA-MB-231 breast)	TGI (SK-MEL-28 melanoma)	TGI (SK-MEL-5 melanoma)	TGI (T-47D breast)	TGI (K-562 leukemia)	TGI (SK-MEL-2 melanoma)
Nc1ccc2[nH]c(-c3cccc(Cl)c3)cc(=O)c2c1	> 100 µM	> 100 µM	> 100 µM	> 100 µM	> 100 µM	> 100 µM	> 100 µM	> 100 µM	–	–
O=C1C=CC(=O)c2c(O)c(NCCc3ccc(O)cc3)c(Cl)c(O)c21	> 10 µM	> 10 µM	> 10 µM	> 10 µM	> 10 µM	–	> 10 µM	> 10 µM	> 10 µM	> 10 µM
CC(C)(C)C1CCC2(CC1)c1[nH]c3ccccc3c1C1(CCC(C(C)(C)C)CC1)c1[nH]c3ccccc3c12 (centres undefined)	> 100 µM	–	> 100 µM	> 100 µM	–	> 100 µM	> 100 µM	–	> 100 µM	> 100 µM
O=C(Cc1ccccc1)NN1C(=O)/C(=C\c2ccc([N+](=O)[O-])cc2)SC1=Nc1ccccc1	> 100 µM	–	> 100 µM	> 100 µM	> 100 µM	> 100 µM	> 100 µM	> 100 µM	> 100 µM	> 100 µM
CCC(=O)Oc1c2ccsc2c(OC(=O)CC)c2ccsc12	5.49 µM	0.361 µM	9.52 µM	3.65 µM	1.27 µM	0.353 µM	0.216 µM	3.88 µM	–	1.39 µM
N#Cc1cc2c(cc1Cl)Sc1nccn1S2(=O)=O	4.64 µM	13 µM	–	13.6 µM	12.4 µM	7.33 µM	22.6 µM	8.57 µM	17.2 µM	12.8 µM
O=c1c(-c2ccc(Cl)cc2)nnc2n(Cc3ccccc3)c3ccccc3n12	> 100 µM	57.2 µM	> 100 µM	> 100 µM	67.8 µM	> 100 µM	> 100 µM	> 100 µM	–	> 100 µM
Brc1cccc(N=NN2CCCC2)c1	> 100 µM	> 100 µM	> 100 µM	> 100 µM	> 100 µM	–	> 100 µM	> 100 µM	> 100 µM	> 100 µM
Cn1c2ccccc2n2c(=O)c3cc([N+](=O)[O-])ccc3c(C#N)c12	> 100 µM	> 100 µM	> 100 µM	> 100 µM	–	> 100 µM	> 100 µM	> 100 µM	> 100 µM	> 100 µM
C=C1C(=O)O[C@@]23C1CC[C@@H](C)C2CC[C@@]1(C)OC31 (some centres undefined)	27.1 µM	23.7 µM	15.9 µM	32.3 µM	–	22.6 µM	12.3 µM	19.2 µM	66.1 µM	23.9 µM
O=C1C=C(c2ccccc2)O/C1=C/C(=O)c1ccc(Cl)cc1	30.5 µM	30.1 µM	> 100 µM	35.9 µM	31.2 µM	32.9 µM	44.2 µM	–	33.7 µM	–
COc1ccc2c(c1)CN1C(=N2)CSC1c1ccccc1Cl (centres undefined)	41.8 µM	80.3 µM	–	42.2 µM	67.5 µM	26.9 µM	28.5 µM	> 100 µM	30.5 µM	37.3 µM
COc1c(C)c2nc3ccccc3[nH]c2c2c(=O)ccnc12	> 100 µM	–	> 100 µM	> 100 µM	> 100 µM	> 100 µM	> 100 µM	> 100 µM	> 100 µM	> 100 µM
O=[N+]([O-])c1ccc(NC(=S)N=Nc2c(O)[nH]c3ccc(Br)cc23)cc1	18 µM	11.1 µM	–	18.3 µM	32 µM	33.5 µM	33.4 µM	37.8 µM	> 100 µM	28.4 µM
COCC1OC(N2C(=O)NC(=O)[C@@H]3C=C4CCCCC4=C[C@@H]32)C(OC)C1OC (some centres undefined)	> 100 µM	> 100 µM	–	> 100 µM	> 100 µM	> 100 µM	–	> 100 µM	> 100 µM	> 100 µM
CCNC(=O)C1CCCN1C(=O)C(CCCN=C(N)N)NC(=O)C(CC(C)C)NC(=O)C(Cc1c[nH]c2ccccc12)NC(=O)C(Cc1ccc(O)cc1)NC(=O)C(CO)NC(=O)C(Cc1c[nH]c2ccccc12)NC(=O)C(Cc1cnc[nH]1)NC(=O)C1CCC(=O)N1 (centres undefined)	> 100 µM	> 100 µM	> 100 µM	> 100 µM	> 100 µM	–	> 100 µM	–	> 100 µM	> 100 µM
Cc1cc2ncc3c(=O)n(NS(=O)(=O)c4ccc(N)cc4)ccc3n2n1	> 100 µM	> 100 µM	> 100 µM	> 100 µM	> 100 µM	> 100 µM	> 100 µM	> 100 µM	–	> 100 µM
OC1(c2ccc(Cl)cc2)c2ccc3ccccc3c2C2=N[C@H]3CCCC[C@@H]3N21 (some centres undefined)	> 100 µM	–	79.9 µM	> 100 µM	> 100 µM	> 100 µM	> 100 µM	26.5 µM	> 100 µM	> 100 µM
COC(=O)c1ccc(C=Nc2ccc(S(N)(=O)=O)cc2)cc1	> 100 µM	> 100 µM	83 µM	–	> 100 µM	> 100 µM	> 100 µM	> 100 µM	–	> 100 µM
CN(C)S(=O)(=O)Nc1nnc(S(N)(=O)=O)s1	> 100 µM	> 100 µM	–	> 100 µM	> 100 µM	> 100 µM	> 100 µM	> 100 µM	> 100 µM	> 100 µM
O=C(O)C(CS)N=c1c2ccccc2n(O)c2ccccc12 (centres undefined)	> 100 µM	–	> 100 µM	> 100 µM	–	> 100 µM	> 100 µM	–	> 100 µM	> 100 µM
COC(=O)C1CC2(c3ccccc3)C(=O)c3ccccc3N2O1 (centres undefined)	> 100 µM	–	> 100 µM	> 100 µM	–	> 100 µM	> 100 µM	–	> 100 µM	> 100 µM
CN(C)CCn1c(=O)c2ccc(NCCCN(C)CCCNc3ccc4c(=O)n(CCN(C)C)c(=O)n5c6ccc([N+](=O)[O-])cc6c(=O)c3c45)c3c(=O)c4cc([N+](=O)[O-])ccc4n(c1=O)c23	1.21 µM	0.176 µM	–	0.174 µM	0.125 µM	0.553 µM	0.311 µM	> 100 µM	–	–

SMILES	TGI (ACHN renal)	TGI (BT-549 breast)	TGI (CCRF-CEM leukemia)	TGI (IGROV1 ovarian)	TGI (MDA-MB-231 breast)	TGI (SK-MEL-28 melanoma)	TGI (SK-MEL-5 melanoma)	TGI (T-47D breast)	TGI (K-562 leukemia)	TGI (SK-MEL-2 melanoma)
CC1(C)CNC(=O)C2(C=NC(C)(C)CNC(=O)C3(C=N1)CCCO3)CCCO2 (centres undefined)	> 10 µM	> 10 µM	> 10 µM	> 10 µM	> 10 µM	> 10 µM	> 10 µM	> 10 µM	> 10 µM	–
CSc1nc2c(c(=O)n1C)N=C(c1ccccc1)[C@H](C(CC(=O)c1ccccc1)c1ccccc1)C(c1ccccc1)N2 (some centres undefined)	> 100 µM	> 100 µM	> 100 µM	> 100 µM	> 100 µM	> 100 µM	> 100 µM	–	> 100 µM	> 100 µM
CC1CC(=O)Nc2nc3ccccc3n21 (centres undefined)	> 100 µM	> 100 µM	> 100 µM	> 100 µM	> 100 µM	–	> 100 µM	> 100 µM	> 100 µM	> 100 µM
COC(=O)C1=Nc2c(C)nn(-c3ccccc3)c2N=C(c2ccc([N+](=O)[O-])cc2)C1	> 10 µM	> 10 µM	> 10 µM	> 10 µM	> 10 µM	> 10 µM	> 10 µM	> 10 µM	> 10 µM	–
O=C(N/N=C/c1cc(Br)cc(Br)c1[O-])c1ccccc1O.O=C(N/N=C/c1cc(Br)cc(Br)c1[O-])c1ccccc1O.[Fe+2]	21.1 µM	–	24.9 µM	41.4 µM	–	21.6 µM	23.4 µM	–	–	21.4 µM
COC1(OC)CCCCC2c3cccc(OC(C)=O)c3C21OC(C)=O (centres undefined)	> 100 µM	–	> 100 µM	> 100 µM	–	> 100 µM	> 100 µM	–	> 100 µM	> 100 µM
O=C(CC1=NCCN1)c1ccccc1	–	–	> 511 µM	> 750 µM	–	> 750 µM	> 750 µM	–	> 750 µM	> 750 µM
COc1ccc(Nc2nc3c([nH]2)c(=O)n(C)c(=O)n3C)cc1	–	–	> 10 µM	> 10 µM	> 10 µM	> 10 µM	> 10 µM	> 10 µM	> 10 µM	–
COc1ccc2c(c1)CC1=C(O2)c2ccc(OC)cc2OC1	36.5 µM	38.8 µM	> 100 µM	> 100 µM	89.6 µM	–	42.4 µM	37.5 µM	> 100 µM	81.6 µM
O=C(N/N=C/c1ccco1)c1cc(I)cc(I)c1O	> 50 µM	> 50 µM	> 50 µM	> 50 µM	–	> 50 µM	34.4 µM	> 50 µM	> 50 µM	19.7 µM
Clc1ccc(OCc2nnc(CCCCCCCCc3nnc(COc4ccc(Cl)cc4)n3Nc3ccccc3)n2Nc2ccccc2)cc1	> 93 µM	97.5 µM	–	> 100 µM	> 100 µM	> 100 µM	2.72 µM	> 100 µM	> 100 µM	63.5 µM
CCOC(=O)C(CC#Cc1ccc(C#CCC(NC(C)=O)C(=O)OCC)cc1)NC(C)=O (centres undefined)	> 100 µM	–	> 100 µM	> 100 µM	> 100 µM	> 100 µM	> 100 µM	> 100 µM	> 100 µM	> 100 µM
COc1c(Br)cc(CC(N)=O)c(O)c1Br	> 100 µM	–	> 100 µM	> 100 µM	–	> 100 µM	> 100 µM	–	> 100 µM	> 100 µM
COc1cc(/C=C\C(=O)O)ccc1OCc1ccccc1	> 100 µM	–	> 100 µM	> 100 µM	> 100 µM	> 100 µM	> 100 µM	> 100 µM	> 100 µM	> 100 µM
C=C1CC(C)(c2ccc(Nc3nc4ccccc4c4occc34)cc2)OC1=O (centres undefined)	17.8 µM	7.02 µM	3.76 µM	–	6.35 µM	27.4 µM	19.6 µM	6.85 µM	> 100 µM	–
O=[N+]([O-])c1ccc(-c2ccc(-c3csc(Nc4ccccn4)n3)o2)cc1	> 100 µM	–	–	> 100 µM	–	> 100 µM	–	–	> 100 µM	> 100 µM
COc1ccc2cc(NC(=O)N/N=C\c3ccc(Cl)cc3)ccc2c1	> 100 µM	> 100 µM	> 100 µM	> 100 µM	> 100 µM	> 100 µM	–	–	> 100 µM	> 100 µM
FC(F)(F)c1ccc2nc3n(c2c1)C(c1c(Cl)cccc1Cl)SC3 (centres undefined)	32.1 µM	50.3 µM	–	24.1 µM	37.7 µM	29.5 µM	–	26.9 µM	–	42.3 µM
CC(=O)OCC(OC(C)=O)C1C[C@H]2O[C@@H]3[C@H](C[C@H]2O1)O[C@@]1(C[C@@H]3C)C[C@H](C)[C@@H]2O[C@]3(C[C@@H]2O1)C[C@H]1O[C@H]2[C@H](C)[C@H]4OC(=O)CC5CC[C@H]6OC7[C@H]8O[C@]9(CC[C@H]%10CC(O)(CO)[C@H](CC[C@H]%11C[C@@H](C)C(O)(CO)C(C[C@@H]4O[C@H]2C[C@H]1O3)O%11)O%10)CC8O[C@@H]7[C@@H](O9)[C@H]6O5 (some centres undefined)	> 1 µM	0.00923 µM	> 1 µM	> 1 µM	> 1 µM	> 1 µM	> 1 µM	–	> 1 µM	> 1 µM
NC(=O)C(=CNC(=S)c1ccncc1)C(N)=O	> 100 µM	> 100 µM	> 100 µM	> 100 µM	> 100 µM	–	> 100 µM	> 100 µM	> 100 µM	> 100 µM
NC1CNC(=O)c2c(Cl)sc(Cl)c21 (centres undefined)	> 100 µM	–	–	> 100 µM	> 100 µM	> 100 µM	–	> 100 µM	> 100 µM	> 100 µM
O=C(Cc1ccc([N+](=O)[O-])cc1)OCC#CCOC(=O)Cc1ccc([N+](=O)[O-])cc1	> 10 µM	> 10 µM	> 10 µM	> 10 µM	> 10 µM	–	> 10 µM	> 10 µM	> 10 µM	> 10 µM
Cc1nc(C)c(Cc2ccccc2)o1	> 100 µM	> 100 µM	> 100 µM	> 100 µM	> 100 µM	> 100 µM	> 100 µM	> 100 µM	> 100 µM	–
